Reference: ChEMBL document CHEMBL5365420, “Kinetics, Thermodynamics, and Structural Effects of Quinoline-2-Carboxylates, Zinc-Binding Inhibitors of New Delhi Metallo-β-lactamase-1 Re-sensitizing Multidrug-Resistant Bacteria for Carbapenems” (J Med Chem, 2023)
Each block holds one molecule with its values, some of them ahead of it.

How the values were obtained:
[1] = biological target: T1, 72 kDa type IV collagenase (Homo sapiens, UniProt P08253); assay: Inhibition of human recombinant MMP-2 CD using OMNIMMP as substrate incubated for 30 mins by fluorescence based analysis
Target sequence in this assay (P08253 whole entry): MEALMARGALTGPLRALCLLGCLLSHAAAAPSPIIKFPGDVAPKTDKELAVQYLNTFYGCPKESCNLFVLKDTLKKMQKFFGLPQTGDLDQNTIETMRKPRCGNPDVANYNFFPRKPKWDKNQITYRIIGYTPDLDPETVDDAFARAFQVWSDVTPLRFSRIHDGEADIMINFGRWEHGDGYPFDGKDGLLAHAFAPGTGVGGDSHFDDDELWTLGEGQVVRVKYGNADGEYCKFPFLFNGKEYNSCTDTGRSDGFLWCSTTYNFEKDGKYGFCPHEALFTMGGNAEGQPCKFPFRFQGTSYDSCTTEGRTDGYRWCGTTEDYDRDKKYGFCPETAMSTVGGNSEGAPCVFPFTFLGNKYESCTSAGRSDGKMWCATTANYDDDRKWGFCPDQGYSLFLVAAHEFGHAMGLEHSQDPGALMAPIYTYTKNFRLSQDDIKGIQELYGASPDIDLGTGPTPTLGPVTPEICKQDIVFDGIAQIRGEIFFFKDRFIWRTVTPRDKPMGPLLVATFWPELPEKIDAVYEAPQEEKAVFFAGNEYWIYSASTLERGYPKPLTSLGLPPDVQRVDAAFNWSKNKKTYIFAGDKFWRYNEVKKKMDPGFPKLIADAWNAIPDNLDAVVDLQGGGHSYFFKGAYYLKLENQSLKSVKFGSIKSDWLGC

[2] = system: Escherichia coli; assay: Antibacterial activity against clinical isolate Escherichia coli ST1012/10 expressing blaNDM-1 co-expressing blaTEM-1/blaCTX-M-15/blaOXA-1 and blaOXA-2 assessed as meropenem MIC at 29.60 uM measured after 20 hrs by broth microdilution assay (reference value: 12 mg/L); assay type: functional; settings: dose 29.6 µM
[3] = Inhibition of VIM-2 (unknown origin) incubated for 15 mins by absorbance based microplate reader analysis; design: species or system Bacteria
[4] = system: Klebsiella pneumoniae; assay: Antibacterial activity against clinical isolate Klebsiella pneumoniae 50/20 expressing blaNDM-5 co-expressing blaTEM-1 and blaSHV-1 assessed as meropenem MIC at 59.20 uM measured after 20 hrs by broth microdilution assay (reference value: 24 mg/L); assay type: functional; settings: dose 59.2 µM
[5] = system: Klebsiella pneumoniae; assay: Antibacterial activity against clinical isolate Klebsiella pneumoniae ST23213/19 expressing blaNDM-1 co-expressing blaOXA-48/blaSHV-11/blaCTX-M-15 and blaOXA-1 assessed as meropenem MIC at 29.60 uM measured after 20 hrs by broth microdilution assay (reference value: 12 mg/L); assay type: functional; settings: dose 29.6 µM
[6] = Inhibition of IMP-1 (unknown origin) expressed in Escherichia coli BL21-DE3 incubated for 15 mins by absorbance based microplate reader analysis; design: species or system Bacteria
[7] = system: Klebsiella pneumoniae; assay: Antibacterial activity against clinical isolate Klebsiella pneumoniae 62/07 expressing blaVIM-19 co-expressing blaSHV-1/blaCTX-M-14 and blaCMY-4 assessed as meropenem MIC at 29.60 uM measured after 20 hrs by broth microdilution assay (reference value: 12 mg/L); assay type: functional; settings: dose 29.6 µM
[8] = system: Escherichia coli; assay: Antibacterial activity against clinical isolate Escherichia coli K12 J53-ST10 696/17 expressing blaNDM-1 co-expressing blaCMY-4 assessed as meropenem MIC at 29.60 uM measured after 20 hrs by broth microdilution assay (reference value: 12 mg/L); assay type: functional; settings: dose 29.6 µM
[9] = system: Acinetobacter baumannii; assay: Antibacterial activity against clinical isolate Acinetobacter baumannii IC 19/09 expressing blaNDM-1 co-expressing blaOXA-64 assessed as meropenem MIC at 29.60 uM measured after 20 hrs by broth microdilution assay (reference value: 12 mg/L); assay type: functional; settings: dose 29.6 µM
[10] = system: Klebsiella pneumoniae; assay: Antibacterial activity against clinical isolate Klebsiella pneumoniae 50/20 expressing blaNDM-5 co-expressing blaTEM-1 and blaSHV-1 assessed as meropenem MIC at 29.60 uM measured after 20 hrs by broth microdilution assay (reference value: 12 mg/L); assay type: functional; settings: dose 29.6 µM
[11] = system: Klebsiella pneumoniae; assay: Antibacterial activity against clinical isolate Klebsiella pneumoniae 62/07 expressing blaVIM-19 co-expressing blaSHV-1/blaCTX-M-14 and blaCMY-4 assessed as meropenem MIC at 59.20 uM measured after 20 hrs by broth microdilution assay (reference value: 24 mg/L); assay type: functional; settings: dose 59.2 µM
[12] = system: Escherichia coli; assay: Antibacterial activity against clinical isolate Escherichia coli 371/12 expressing blaNDM-7 co-expressing blaCTX-M-15 and blaOXA-1 assessed as meropenem MIC at 29.60 uM measured after 20 hrs by broth microdilution assay (reference value: 12 mg/L); assay type: functional; settings: dose 29.6 µM
[13] = system: Klebsiella pneumoniae; assay: Antibacterial activity against clinical isolate Klebsiella pneumoniae 50/11 expressing blaNDM-1 co-expressing blaTEM-1/blaSHV-28/blaTEM-1/blaCTX-M-15 and blaOXA-1 assessed as meropenem MIC at 29.60 uM measured after 20 hrs by broth microdilution assay (reference value: 12 mg/L); assay type: functional; settings: dose 29.6 µM
[14] = biological target: T1, 72 kDa type IV collagenase; assay: Inhibition of human recombinant MMP-2 CD at 10 uM using OMNIMMP as substrate incubated for 30 mins by fluorescence based analysis relative to control
Target sequence in this assay (P08253 110-660 limits assumed): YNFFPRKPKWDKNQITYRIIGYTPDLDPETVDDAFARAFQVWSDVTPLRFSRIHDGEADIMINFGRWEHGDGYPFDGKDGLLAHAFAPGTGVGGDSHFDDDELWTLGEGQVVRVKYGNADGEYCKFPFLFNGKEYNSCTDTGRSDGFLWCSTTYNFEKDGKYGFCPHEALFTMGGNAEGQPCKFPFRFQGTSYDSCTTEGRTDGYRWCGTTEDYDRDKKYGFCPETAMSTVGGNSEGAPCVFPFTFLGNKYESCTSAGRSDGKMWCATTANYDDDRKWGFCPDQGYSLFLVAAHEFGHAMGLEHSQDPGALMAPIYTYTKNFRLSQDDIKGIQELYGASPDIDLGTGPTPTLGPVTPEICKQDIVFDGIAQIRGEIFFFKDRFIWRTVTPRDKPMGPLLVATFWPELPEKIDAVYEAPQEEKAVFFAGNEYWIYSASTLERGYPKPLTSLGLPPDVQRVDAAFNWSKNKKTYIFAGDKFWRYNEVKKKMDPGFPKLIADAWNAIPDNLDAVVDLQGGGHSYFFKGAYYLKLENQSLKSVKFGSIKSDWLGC

[15] = biological target: Carbonic anhydrase 2 (Homo sapiens) (UniProt P00918); assay: Inhibition of human CA2 at 10 uM using pNPA as substrate preincubated for 15 mins followed by substrate by absorbance based analysis relative to control
[16] = system: Escherichia coli; assay: Antibacterial activity against clinical isolate Escherichia coli K12 J53-ST10 684/18 expressing blaNDM-1 co-expressing blaCMY-2 and blaOXA-10 assessed as meropenem MIC at 29.60 uM measured after 20 hrs by broth microdilution assay (reference value: 12 mg/L); assay type: functional; settings: dose 29.6 µM
[17] = system: Escherichia coli; assay: Antibacterial activity against clinical isolate Escherichia coli 371/12 expressing blaNDM-7 co-expressing blaCTX-M-15 and blaOXA-1 assessed as meropenem MIC at 59.20 uM measured after 20 hrs by broth microdilution assay (reference value: 24 mg/L); assay type: functional; settings: dose 59.2 µM
[18] = system: Escherichia coli; assay: Antibacterial activity against clinical isolate Escherichia coli K12 J53-ST10 684/18 expressing blaNDM-1 co-expressing blaCMY-2 and blaOXA-10 assessed as meropenem MIC at 59.20 uM measured after 20 hrs by broth microdilution assay (reference value: 24 mg/L); assay type: functional; settings: dose 59.2 µM
[19] = system: Klebsiella pneumoniae; assay: Antibacterial activity against clinical isolate Klebsiella pneumoniae ST1493/10 expressing blaNDM-1 co-expressing blaCMY-2like/blaTEM-1/blaCTX-M-15/blaSHV-28/blaOXA-1 and blaOXA-9 assessed as meropenem MIC at 59.20 uM measured after 20 hrs by broth microdilution assay (reference value: 24 mg/L); assay type: functional; settings: dose 59.2 µM
[20] = system: Escherichia coli; assay: Antibacterial activity against clinical isolate Escherichia coli K12 J53-ST10 618/15 expressing blaNDM-1 assessed as meropenem MIC at 59.20 uM measured after 20 hrs by broth microdilution assay (reference value: 24 mg/L); assay type: functional; settings: dose 59.2 µM
[21] = system: Escherichia coli; assay: Antibacterial activity against clinical isolate Escherichia coli ST1012/10 expressing blaNDM-1 co-expressing blaTEM-1/blaCTX-M-15/blaOXA-1 and blaOXA-2 assessed as meropenem MIC at 59.20 uM measured after 20 hrs by broth microdilution assay (reference value: 24 mg/L); assay type: functional; settings: dose 59.2 µM
[22] = system: Escherichia coli; assay: Antibacterial activity against clinical isolate Escherichia coli K12 J53-ST10 699/15 expressing blaNDM-1 assessed as meropenem MIC at 59.20 uM measured after 20 hrs by broth microdilution assay (reference value: 24 mg/L); assay type: functional; settings: dose 59.2 µM
[23] = biological target: T1, 72 kDa type IV collagenase; assay: Binding affinity to human recombinant MMP-2 CD assessed as inhibition constant using OMNIMMP as substrate incubated for 30 mins by fluorescence based analysis
Target sequence in this assay (P08253 whole entry): as the sequence (P08253 whole entry) above

[24] = biological target: Histone deacetylase 1 (Homo sapiens) (UniProt Q13547); assay: Inhibition of C-terminal 6His/FLAG-tagged human recombinant full-length HDAC1 (1 to 482(end) residues) at 10 uM using Boc-Lys-(Ac)-AMC as substrate incubated for 10 mins followed by substrate addition measured after 1 hr by fluorescence based analysis relative to control; settings: time 70.0 min
[25] = system: Escherichia coli; assay: Antibacterial activity against clinical isolate Escherichia coli K12 J53-ST10 699/15 expressing blaNDM-1 assessed as meropenem MIC at 29.60 uM measured after 20 hrs by broth microdilution assay (reference value: 12 mg/L); assay type: functional; settings: dose 29.6 µM
[26] = system: Klebsiella pneumoniae; assay: Antibacterial activity against clinical isolate Klebsiella pneumoniae ST23213/19 expressing blaNDM-1 co-expressing blaOXA-48/blaSHV-11/blaCTX-M-15 and blaOXA-1 assessed as meropenem MIC at 59.20 uM measured after 20 hrs by broth microdilution assay (reference value: 24 mg/L); assay type: functional; settings: dose 59.2 µM
[27] = system: Klebsiella pneumoniae; assay: Antibacterial activity against clinical isolate Klebsiella pneumoniae ST1493/10 expressing blaNDM-1 co-expressing blaCMY-2like/blaTEM-1/blaCTX-M-15/blaSHV-28/blaOXA-1 and blaOXA-9 assessed as meropenem MIC at 29.60 uM measured after 20 hrs by broth microdilution assay (reference value: 12 mg/L); assay type: functional; settings: dose 29.6 µM
[28] = system: Escherichia coli; assay: Antibacterial activity against clinical isolate Escherichia coli K12 J53-ST10 696/17 expressing blaNDM-1 co-expressing blaCMY-4 assessed as meropenem MIC at 59.20 uM measured after 20 hrs by broth microdilution assay (reference value: 24 mg/L); assay type: functional; settings: dose 59.2 µM
[29] = system: Klebsiella pneumoniae; assay: Antibacterial activity against clinical isolate Klebsiella pneumoniae 50/11 expressing blaNDM-1 co-expressing blaTEM-1/blaSHV-28/blaTEM-1/blaCTX-M-15 and blaOXA-1 assessed as meropenem MIC at 59.20 uM measured after 20 hrs by broth microdilution assay (reference value: 24 mg/L); assay type: functional; settings: dose 59.2 µM
[30] = system: Escherichia coli; assay: Antibacterial activity against clinical isolate Escherichia coli K12 J53-ST10 618/15 expressing blaNDM-1 assessed as meropenem MIC at 29.60 uM measured after 20 hrs by broth microdilution assay (reference value: 12 mg/L); assay type: functional; settings: dose 29.6 µM
[31] = system: Acinetobacter baumannii; assay: Antibacterial activity against clinical isolate Acinetobacter baumannii IC 19/09 expressing blaNDM-1 co-expressing blaOXA-64 assessed as meropenem MIC at 59.20 uM measured after 20 hrs by broth microdilution assay (reference value: 24 mg/L); assay type: functional; settings: dose 59.2 µM

Histone deacetylase 1 (Homo sapiens), sequence (Q13547 whole entry): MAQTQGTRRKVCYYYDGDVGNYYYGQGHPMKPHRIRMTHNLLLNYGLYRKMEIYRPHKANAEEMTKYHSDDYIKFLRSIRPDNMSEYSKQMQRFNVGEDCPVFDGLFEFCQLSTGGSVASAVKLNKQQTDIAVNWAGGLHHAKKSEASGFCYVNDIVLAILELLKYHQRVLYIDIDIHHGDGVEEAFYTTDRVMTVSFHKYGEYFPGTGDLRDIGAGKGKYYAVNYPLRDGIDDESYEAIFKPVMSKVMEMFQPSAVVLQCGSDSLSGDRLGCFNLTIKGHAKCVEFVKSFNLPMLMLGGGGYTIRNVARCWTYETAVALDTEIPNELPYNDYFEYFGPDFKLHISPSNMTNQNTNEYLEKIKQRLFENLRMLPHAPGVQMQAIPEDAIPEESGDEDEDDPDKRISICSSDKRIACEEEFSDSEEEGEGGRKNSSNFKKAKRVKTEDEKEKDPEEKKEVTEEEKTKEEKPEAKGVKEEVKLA

- IC50 [1]: 0.266 µM
Structure (SMILES): O=C(O)[C@H](Cc1ccccc1)NS(=O)(=O)c1ccc(-c2ccccc2)cc1

- MIC [2]: 1 mg/L
- IC50 [3]: 0.61 µM
- MIC [4]: ≤ 0.125 mg/L
- MIC [5]: 32 mg/L
- IC50 [6]: 0.25 µM
- MIC [7]: 8 mg/L
- MIC [8]: ≤ 0.125 mg/L
- MIC [9]: 8 mg/L
- MIC [10]: 2 mg/L
- MIC [11]: 0.5 mg/L
- MIC [12]: 32 mg/L
- MIC [13]: 0.5 mg/L
- inhibition [14]: > 90%
- inhibition [15]: < 5%
- MIC [16]: 0.25 mg/L
- MIC [17]: ≤ 0.125 mg/L
- MIC [18]: ≤ 0.125 mg/L
- MIC [19]: 1 mg/L
- MIC [20]: ≤ 0.125 mg/L
- MIC [21]: ≤ 0.125 mg/L
- MIC [22]: ≤ 0.125 mg/L
- Ki [23]: 6.92 µM
- inhibition [24]: < 5%
- MIC [25]: 1 mg/L
- MIC [26]: 16 mg/L
- MIC [27]: 4 mg/L
- MIC [28]: ≤ 0.125 mg/L
- MIC [29]: ≤ 0.125 mg/L
- MIC [30]: ≤ 0.125 mg/L
- MIC [31]: 1 mg/L
Structure (SMILES): O=C(O)c1cc(-c2ccccc2)c2cccc(NS(=O)(=O)c3ccccn3)c2n1
